In this test the test system is Plasmodium berghei. Kind of test: Luciferase/luciferin-expressing antifolate-resistant parasites were used to infect a culture of HepG2 cells that were pre-incubated with compounds. Infected hepatocytes emit light due to the luciferase reaction. Assay results are presented as the percent inhibition of light emission compared to control. […]. Type of test: functional. The settings on record: sporozoite; for IC50: read-out: LUCIFERASE INFECTION ASSAY - IC50; for IC90: read-out: LUCIFERASE INFECTION ASSAY - IC90.

Experimental findings from ChEMBL document CHEMBL4483862, “Open-source discovery of chemical leads for next-generation chemoprotective antimalarials” (2018) are described below.

For `Cc1c(S(=O)(=O)c2ccc(Cl)cc2)csc1S(=O)(=O)N1CCOCC1`, the IC50 is greater than 7.82 µM and the 90% effect concentration (IC90) was greater than 7.82 µM.

Regarding `CSc1nccc(-c2sc(SC)c3c2CCCC3=O)n1`, the half-maximal inhibitory concentration (IC50) is greater than 10.2 µM and the IC90 is greater than 10.2 µM.

For the molecule `CC(C)S(=O)(=O)c1cnc(N2CCCCC2)nc1N`, the IC50 is greater than 11.6 µM and the 90% effect concentration (IC90) was greater than 11.6 µM.

In the case of `CC1(C)CC(=O)c2cnc(SCC(=O)Nc3ccc(F)cc3F)nc2C1`, the IC50 was greater than 8.74 µM and the IC90 was greater than 8.74 µM.

With `CN1c2ccsc2C(=O)/C(=C/Nc2cccc(Cl)c2)S1(=O)=O`, the IC50 is greater than 9.3 µM and the concentration for an effect of 90% (IC90) is greater than 9.3 µM.

Turning to `O=C(N/N=C/c1c2ccccc2cc2ccccc12)c1ccc(Br)cc1`, the IC50 is greater than 8.18 µM and the IC90 is greater than 8.18 µM.

`CC(C)(C)S(=O)(=O)/C(C#N)=C/Nc1ccc(OC(F)(F)F)cc1`: the IC50 was greater than 9.47 µM and the IC90 was greater than 9.47 µM.

As to `COc1ccc(Sc2sc(C(C)=O)cc2[N+](=O)[O-])cc1`, the IC50 is greater than 10.7 µM and the IC90 was greater than 10.7 µM.

Regarding `CSc1sc(-c2ccn(S(=O)(=O)c3ccc(Cl)c(Cl)c3)n2)c2c1C(=O)CC(C)(C)C2`, the IC50 is greater than 6.58 µM and the IC90 is greater than 6.58 µM.

On to `COC(=O)c1scc(S(=O)(=O)Cc2ccco2)c1NN=C(C#N)C#N`, for which the IC50 is greater than 8.72 µM and the IC90 was greater than 8.72 µM.

As to `CSc1cc(-c2sc3scc(C)c3c2C)n[nH]1`, the IC50 is greater than 11.8 µM and the IC90 is greater than 11.8 µM.

`O=C(COc1ccccc1SCc1ccc(Cl)cc1)NNC(=O)c1cccc(C(F)(F)F)c1`: the half-maximal inhibitory concentration (IC50) is greater than 6.67 µM and the IC90 is greater than 6.67 µM.

`N#C/C(=C\Nc1ccc(OC(F)(F)F)cc1)S(=O)(=O)c1ccc(Cl)cc1`: the IC50 is greater than 8.19 µM and the IC90 was greater than 8.19 µM.

In the case of `O=C(NCc1ccc(S(=O)(=O)N2CCOCC2)s1)c1ccc(Cl)cc1`, the IC50 is greater than 8.23 µM and the IC90 was greater than 8.23 µM.

Take `CCC(=O)/C(=N/Nc1ccccc1)C(=O)OC`: the IC50 is greater than 14.1 µM and the IC90 was greater than 14.1 µM.

Consider `CC1(C)CC(=O)C=C(SCC(=O)Nc2cccc(C(F)(F)F)c2)S1`, for which the IC50 was greater than 8.79 µM and the IC90 is greater than 8.79 µM.

With `Cc1ccc(N/C=C(\C#N)S(=O)(=O)c2ccc(Cl)cc2)cc1`, the IC50 is greater than 9.92 µM and the IC90 is greater than 9.92 µM.

As for `CSC(SC)=C(C#N)S(=O)(=O)C(C)C`, the IC50 is greater than 13.1 µM and the concentration for an effect of 90% (IC90) is greater than 13.1 µM.

Turning to `Cc1ccc(S(=O)(=O)CCN2C(=O)CSC2=O)cc1`, the IC50 is greater than 11 µM and the IC90 was greater than 11 µM.

`CSc1c(C#N)c(-c2ccc(Cl)cc2)nn1C(=O)c1ccccc1Cl`: the concentration for half-maximal inhibition (IC50) was greater than 8.5 µM and the IC90 was greater than 8.5 µM.

Take `CO/N=C1\CC(C)(C)Cc2c(-c3ccn(C(=O)Nc4ccc(Cl)cc4)n3)sc(SC)c21`: the IC50 is greater than 6.95 µM and the concentration for an effect of 90% (IC90) was greater than 6.95 µM.

Turning to `C=CCNC(=O)CSC1=CC(=O)CC(c2ccc(Cl)cc2)S1` (configuration not stated), the half-maximal inhibitory concentration (IC50) was greater than 9.32 µM and the IC90 was greater than 9.32 µM.

Turning to `CC(=O)c1sc2sc(C#N)c(C)c2c1C`, the half-maximal inhibitory concentration (IC50) is greater than 14 µM and the 90% effect concentration (IC90) is greater than 14 µM.

`CCOC(=O)c1sc(SC)c2c1CC(c1ccccc1)CC2=O` (configuration not stated): the concentration for half-maximal inhibition (IC50) is greater than 9.52 µM and the concentration for an effect of 90% (IC90) was greater than 9.52 µM.

Consider `COC(=O)c1scc(S(=O)(=O)c2ccc(Cl)cc2)c1C`, for which the IC50 is greater than 9.98 µM and the 90% effect concentration (IC90) is greater than 9.98 µM.

As for `CC(C)(C)CN=C(C#N)C(C#N)/N=C/c1cccc(Cl)c1` (configuration not stated), the IC50 is greater than 11 µM and the 90% effect concentration (IC90) is greater than 11 µM.

As for `OC(C#CC(O)(c1ccccc1)c1ccccc1)(c1ccccc1)c1ccccc1`, the IC50 is greater than 8.45 µM and the IC90 was greater than 8.45 µM.

With `C=S(=O)(NC(=O)c1ccc(-c2cc(C(F)(F)F)nn2C)s1)c1ccc(C)cc1` (configuration not stated), the IC50 is greater than 7.72 µM and the 90% effect concentration (IC90) was greater than 7.72 µM.

In the case of `O=[N+]([O-])c1cccc(-c2csc(CS(=O)(=O)c3cccs3)n2)c1`, the IC50 was greater than 9.01 µM and the IC90 was greater than 9.01 µM.

Regarding `CCOC(=O)c1sc2sc(C(C)=O)c(C)c2c1C`, the IC50 is greater than 11.7 µM and the concentration for an effect of 90% (IC90) was greater than 11.7 µM.

For `CSc1sc(C(=O)N2CCOCC2)c2c1S(=O)(=O)N(C)c1ccccc1-2`, the IC50 is greater than 8.04 µM and the IC90 was greater than 8.04 µM.

On to `CSc1sc(-c2ccnc(SCc3cccc(F)c3)n2)c2c1C(=O)CCC2`, for which the 50% inhibitory concentration (IC50) was greater than 7.92 µM and the IC90 was greater than 7.92 µM.

`CSc1nnc(-c2csc(S(=O)(=O)Oc3cc(Cl)cc(Cl)c3)c2)n1C`: the half-maximal inhibitory concentration (IC50) was greater than 7.56 µM and the concentration for an effect of 90% (IC90) is greater than 7.56 µM.

As for `CSc1sc(Br)c2c1/C(=N\O)CC(C)(C)C2`, the half-inhibitory concentration (IC50) is greater than 10.3 µM and the concentration for an effect of 90% (IC90) was greater than 10.3 µM.

For `CO/N=C1\CC(C)(C)Cc2c(-c3ccn(S(=O)(=O)c4ccccc4Cl)n3)sc(SC)c21`, the half-inhibitory concentration (IC50) was greater than 6.65 µM and the concentration for an effect of 90% (IC90) is greater than 6.65 µM.

As to `C=Cc1c(S(C)(=O)=O)sc(C(N)=O)c1C`, the IC50 is greater than 13.5 µM and the IC90 is greater than 13.5 µM.

Turning to `CSc1nc(N/C=C2/C(=O)c3ccccc3N(C)S2(=O)=O)nc(N(C)C)n1`, the concentration for half-maximal inhibition (IC50) is greater than 8.12 µM and the 90% effect concentration (IC90) is greater than 8.12 µM.

Consider `O=c1cc(-c2ccccc2)[nH]c2cc(-c3cccs3)nn12`, for which the half-maximal inhibitory concentration (IC50) turned out to be 8.64 µM and the IC90 is greater than 11.2 µM.

For the molecule `Cc1nn(Cc2nnc(SCC(=O)c3ccc(Cl)cc3)n2C)c(C)c1[N+](=O)[O-]`, the IC50 was greater than 7.84 µM and the IC90 was greater than 7.84 µM.

For the molecule `CSc1nc(=NC(=O)NS(=O)(=O)Oc2ccc(Cl)cc2Cl)n2nc(C3CC3)cc2[nH]1`, the half-maximal inhibitory concentration (IC50) was greater than 6.74 µM and the IC90 was greater than 6.74 µM.

Regarding `CSc1nccc(-c2ccc(S(=O)(=O)n3nc(C)c([N+](=O)[O-])c3C)s2)n1`, the half-inhibitory concentration (IC50) was greater than 8.02 µM and the IC90 was greater than 8.02 µM.

With `CSc1nnc(-c2csc(S(=O)(=O)Nc3ccccc3Cl)c2)n1C`, the IC50 was greater than 8.23 µM and the IC90 was greater than 8.23 µM.

`CSc1sc(C(=O)Nc2ccc(Cl)cc2)c2c1S(=O)(=O)N(C)c1ccccc1-2`: the IC50 is greater than 7.32 µM and the IC90 was greater than 7.32 µM.

With `Cc1ncc(S(=O)(=O)Cc2ccco2)c(N)n1`, the IC50 is greater than 13 µM and the IC90 is greater than 13 µM.

Consider `CC1(C)CC(=O)C=C(SCCS(=O)(=O)c2ccc(Cl)cc2)S1`, for which the IC50 was greater than 8.75 µM and the concentration for an effect of 90% (IC90) was greater than 8.75 µM.

Take `COC(=O)c1sc(SC)c2c1CC(C)(C)C/C2=N\O`: the IC50 is greater than 11 µM and the IC90 was greater than 11 µM.

In the case of `Cc1ccc(NC(=S)NCc2ccccn2)cc1C`, the 50% inhibitory concentration (IC50) is greater than 12.2 µM and the concentration for an effect of 90% (IC90) was greater than 12.2 µM.

Regarding `CCOC(=O)c1sc(S(=O)(=O)Cc2ccccc2)c2c1CC(C)(C)CC2=O`, the IC50 is greater than 8.12 µM and the IC90 is greater than 8.12 µM.

As to `CN1c2ccsc2C(=O)/C(=C\Nc2ccccc2Cl)S1(=O)=O`, the concentration for half-maximal inhibition (IC50) was greater than 9.3 µM and the IC90 is greater than 9.3 µM.

Consider `CSc1sc(C(=O)Nc2cc(C(F)(F)F)cc(C(F)(F)F)c2)c(-c2ccc(Cl)cc2)c1C#N`, for which the IC50 amounted to 0.839 µM and the 90% effect concentration (IC90) was 2.43 µM.

For `CSC1=CC(=O)CC(C)(C)S1`, the IC50 was greater than 17.5 µM and the concentration for an effect of 90% (IC90) is greater than 17.5 µM.

For `N#CC(=N)C(C#N)NCc1ccccc1Sc1ccc(Cl)cc1` (configuration not stated), the IC50 is greater than 9.68 µM and the 90% effect concentration (IC90) was greater than 9.68 µM.

`Fc1ccc(Nc2n[nH]c(=S)s2)cc1`: the IC50 is greater than 14.5 µM and the IC90 was greater than 14.5 µM.

For the molecule `CNC(=O)c1ccc(-c2cc(C(F)(F)F)n(C)n2)s1`, the IC50 is greater than 11.4 µM and the IC90 is greater than 11.4 µM.

Take `CCOC(=O)c1sc(SCc2ccccc2)c(S(=O)(=O)C(C)C)c1N`: the IC50 was greater than 8.26 µM and the IC90 was greater than 8.26 µM.

As for `COC(=O)C1=C(Nc2ccc(OS(=O)(=O)c3ccc(Cl)cc3)cc2)CSC1`, the IC50 was greater than 7.75 µM and the IC90 was greater than 7.75 µM.

As to `Cc1nn(C)c2ncc(C(=O)Nc3ccc(F)c(Cl)c3)c(SC(C)C)c12`, the IC50 is greater than 8.4 µM and the IC90 was greater than 8.4 µM.

For `COC(=O)c1sccc1N/N=C(\C#N)S(=O)(=O)c1ccc(Cl)cc1`, the IC50 was greater than 8.6 µM and the concentration for an effect of 90% (IC90) is greater than 8.6 µM.

Take `N#C/C(=N\Nc1ccc(OC(F)(F)F)cc1)S(=O)(=O)c1ccccn1`: the IC50 is greater than 8.91 µM and the concentration for an effect of 90% (IC90) is greater than 8.91 µM.

Consider `COc1ccc(C(OC[C@H]2O[C@@H](n3cnc4c(N)ncnc43)CC2O)(c2ccccc2)c2ccc(OC)cc2)cc1` (some centres not stated), for which the concentration for half-maximal inhibition (IC50) is greater than 5.96 µM and the IC90 is greater than 5.96 µM.

`O=C(O)C1CSC(c2ccccc2)N1` (configuration not stated): the half-inhibitory concentration (IC50) is greater than 15.8 µM and the IC90 was greater than 15.8 µM.

With `Cc1csc2sc(C(=O)N3CCOCC3)c(C)c12`, the concentration for half-maximal inhibition (IC50) is greater than 11.7 µM and the 90% effect concentration (IC90) is greater than 11.7 µM.

With `CCOC(=O)c1sc(N(NC(=O)c2cc(C(F)(F)F)cc(C(F)(F)F)c2)C(=O)c2cc(C(F)(F)F)cc(C(F)(F)F)c2)c2c1CC(C)(C)CC2=O`, the concentration for half-maximal inhibition (IC50) is greater than 4.33 µM and the IC90 was greater than 4.33 µM.

Take `CSc1sc(-c2ccnc(SCC(=O)c3ccc(Cl)cc3)n2)c2c1C(=O)CCC2`: the IC50 is greater than 7.16 µM and the IC90 is greater than 7.16 µM.

As to `Cc1nn(S(=O)(=O)c2ccc(-c3cc(C(F)(F)F)n(C)n3)s2)c(C)c1Br`, the IC50 was greater than 7.03 µM and the IC90 was greater than 7.03 µM.

Take `CSc1sc(-c2nc(C(C)(C)C)cs2)c(C)c1C(C)=O`: the IC50 was greater than 10.1 µM and the IC90 was greater than 10.1 µM.

Take `Cc1cc(NNC(=O)c2ccccc2Cl)nc2c1c(-c1cccs1)nn2C`: the IC50 was greater than 8.29 µM and the 90% effect concentration (IC90) is greater than 8.29 µM.

On to `CNC(=O)c1sc2scc(C)c2c1C`, for which the IC50 is greater than 14.6 µM and the 90% effect concentration (IC90) was greater than 14.6 µM.

In the case of `COC(=O)c1scc(S(=O)(=O)Cc2ccco2)c1N/N=C(\C#N)S(=O)(=O)C(C)C`, the concentration for half-maximal inhibition (IC50) was greater than 7.18 µM and the IC90 was greater than 7.18 µM.

For `CC(C)CC(NC(=O)Cc1ccsc1)C(=O)N/N=C/c1cccs1` (configuration not stated), the IC50 was greater than 9.08 µM and the IC90 is greater than 9.08 µM.

As to `N#C/C(=C\Nc1cccc([N+](=O)[O-])c1)S(=O)(=O)c1ccc(Cl)cc1`, the IC50 was greater than 9.07 µM and the IC90 was greater than 9.07 µM.
